Data set [1] in a line: In vitro stability in mouse liver microsomes. Type of data set: in vitro ADME. As to conditions: for In vitro stability in mouse (% remaining at 60 min) Liver microsomes: 10 μM, 0.5 mg/mL microsomes. The method, then: (§1) In addition to solubility, all prodrugs were screened for in vitro metabolic stability in mouse jejunum homogenate, liver microsomes and plasma (see Table 3) to characterize their bioconversion to MBZ. The screening paradigm was designed to confirm activation of prodrugs to MBZ following oral administration in these highly metabolic sites. Initial screening was done in mouse jejunum homogenate by incubating the compounds for 60 min. […] Following jejunum stability, the prodrugs were screened in mouse liver microsomes.
(§2) In vitro stability studies were done using mouse jejunum homogenate, mouse liver microsomes or naïve mouse plasma. For mouse jejunum homogenate stability study, washed mouse jejunum was diluted 10-fold in 0.1 M potassium phosphate buffer, and homogenized using probe sonication. Crude homogenate was then aliquoted to 1 mL and the homogenate was spiked with 10 μM of compound. Liver microsome stability assay was performed in 100 mM potassium phosphate buffer, pH 7.4, and reactions were initiated by addition of the liver microsomes to the incubation mixture (compound final concentration was 10 μM; 0.5 mg/mL microsomes). The plasma stability of the prodrugs was determined by spiking (10 μM) of prodrugs in 1 mL of plasma and incubating in an orbital shaker at 37° C. All the stability studies were conducted at predetermined times (0 and 60 min), where 100 μL aliquots of the mixture in triplicate were removed and the reaction was quenched by addition of three times the volume of ice cold acetonitrile spiked with the internal standard (losartan: 0.5 μM). The samples were vortex mixed for 30 sec and centrifuged at 10000×g for 10 min at 4° C. Fifty microliter of the supernatant was diluted with 50 μL water and transferred to a 2504 polypropylene vial sealed with a Teflon cap. Prodrug disappearance was monitored over time using liquid chromatography and tandem mass spectrometry (LC-MS/MS).
(§3) Briefly, prodrugs were analyzed on a Thermo Scientific Accela UPLC system coupled to Accela open autosampler at ambient temperature with an Agilent Eclipse Plus column (100×2.1 mm i.d.) packed with a 1.8 μm C18 stationary phase. The autosampler was temperature controlled and operated at 10° C. The mobile phase used for the chromatographic separation was composed of acetonitrile/water containing 0.1% formic acid and with a flow rate of 0.4 mL/min for 4.5 min using gradient elution. The column effluent was monitored using TSQ Vantage triple-quadrupole mass-spectrometric detector, equipped with an electrospray probe set in the positive ionization mode. Samples were introduced into the ionization source through a heated nebulized probe (350° C.). Disappearance of prodrugs was measured from ratio of peak areas of analyte to IS.
For orientation: Liver microsomes are vesicles of endoplasmic reticulum, rich in cytochrome P450 enzymes.

For data set [2] the following is noted: male, CD-1, mouse, in vivo, 30 mg/kg. The method, then: (§4) All pharmacokinetic studies in mice were conducted according to protocols approved by the Animal Care and Use Committee at Johns Hopkins University. Male CD-1 mice between 25 and 30 g were obtained from Harlan, and maintained on a 12-h light-dark cycle with ad libitum access to food and water. […] The mice were sacrificed at specified time points post drug administration. For collection of plasma and brain tissue, animals were euthanized with CO2, and blood samples were collected in heparinized microtubes by cardiac puncture. Tissues were dissected and immediately flash frozen (−80° C.). Blood samples were spun at 2,000×g for 15 min, plasma was removed and stored at −80° C. until LC/MS analysis. Prior to extraction, frozen samples were thawed on ice. The calibration curves were developed using plasma and brain from naïve animals as a matrix. Plasma samples (50 μL), were processed using a single liquid extraction method by addition of 3004 of acetonitrile as with internal standard (losartan: 0.5 μM), followed by vortex mixing for 30 sec and then centrifugation at 10,000×g for 10 min at 4° C. For brain tissue, homogenized samples were vortex mixed and centrifuged as above. A 104 aliquot of supernatant was diluted with 35 µL of acetonitrile and mixed with 50 μL water containing 0.5 μM losartan as internal standard. Extracts were centrifuged at 10,000×g for 10 min at 4° C. Supernatants were transferred to 2504 polypropylene autosampler vials sealed with a Teflon cap. A volume of 34 was injected onto the ultra-performance liquid chromatography (UPLC) instrument for quantitative analysis by LC-MS/MS.
The a priori level of significance for all analyses was defined asp <0.05.

Data set [3] can be described thus: In vitro stability in mouse plasma. In kind it is in vitro ADME. The settings on record: for In vitro stability in mouse (% remaining at 60 min) Plasma: 10 μM, 37° C. The method, then: as §1, §2, §3
The conditions of data set [4]: in vivo, po. The procedure: Brain concentrations of MBZ were also measured in tandem.
as §4

Another data set can be described thus: physchem. The settings on record: for fold improvement in solubility over MBZ-C: 24 h, pH 7.4; for solubility at 24 h: 37 °C, thermodynamic from solid. The procedure:
The aqueous solubility was determined as previously reported using the shake-flask procedure published by Zhou, et al., 2007. The compound was added to PBS buffer (0.01 M) and shaken for 24 h at 37° C. to ensure saturation. After 24 h, the solution was centrifuged (10,000 rpm, 2 min, RT) filtered (0.45 μm PTFE) and the filtrate was diluted appropriately (i.e. neat, 1/10, 1/100, 1/1000) and the concentration of compound was determined using LC/MS.

Data set [5] is described as follows: In vitro stability in mouse jejunum (intestinal) homogenate. Type of data set: in vitro ADME. The settings on record: for In vitro stability in mouse (% remaining at 60 min) Intestinal homogenate: 10 μM. The method, then: as §1, §2, §3
Data set [6] is described as follows: Chemical stability in PBS at 37° C. (LC-MS). In kind it is physicochemical. The settings on record: for chemical stability: aqueous environment / PBS. The method, then:
Prodrugs were also tested for chemical stability in 0.01 M PBS for 60 min at 37° C. by monitoring intact prodrug using LC-MS. […] Thus prodrug 14 was not assessed in assays due to its significant instability in PBS at pH 7.4.
Prodrug chemical stability was measured by the addition of 1 μL, of 10 mM DMSO stock solution to 1 mL of preheated (37° C.) […], resulting in a final concentration of 10 μM. The mixture was vortex mixed for 30 sec, and then incubated at 37° C. At specified time points 100 μL of the mixture was removed and extracted with 300 μL of cold acetonitrile (0° C.) with internal standard. This mixture was further diluted with 400 μL of water and the resulting solution was analyzed by LC-MS.

Structures are written as SMILES. In brackets after ≈: the same amount, converted by molar mass.

As for `COC(=O)Nc1nc2cc(C(=O)c3ccccc3)ccc2n1COP(=O)([O-])OCOC(=O)OC(C)C.[Na+]` [Compound 12, Methyl (5-benzoyl-1-(((hydroxy(((isopropoxycarbonyl)oxy)methoxy)phosphoryl)oxy)methyl)-1H-benzo[d]imidazol-2-yl)carbamate, sodium salt], the “In vitro stability in mouse (% remaining at 60 min) Liver microsomes” value in data set [1] is given as 14 ± 0%. Besides, the “MBZ plasma concentration at 1 h post oral administration” value (“MBZ plasma concentration” below) in data set [2] stood at 10.35 ± 2.57 nmol/mL. Moreover, the “fold improvement in plasma MBZ over MBZ-C” value in data set [2] (po, 1 h) is listed as 3.6 fold. The “In vitro stability in mouse (% remaining at 60 min) Plasma” value in data set [3] came to 73 ± 3%. Besides, in data set [4] (male, CD-1, mouse, 30 mg/kg), the “AUC0-t (MBZ, plasma)” value amounted to 27.9 µM·h; the “brain AUC0-t” value came to 21.9 µM·h; the “fold enhanced plasma AUC0-t compared to MBZ-C” value is recorded as 2.2 fold; the “fold increase in brain AUC0-t over MBZ-C” value was 1.7 fold. Also, in data set [4] (mouse), the “intact prodrug in brain samples” value was “no intact prodrug was detected” and the “intact prodrug in plasma samples” value is reported as “no intact prodrug was detected”. Further, the “AUC0-t (MBZ, brain)” value in data set [4] (mouse, 30 mg/kg) came to 21.9 ± 2.0 nmol·h/g. Also, in “physchem”, the “fold improvement in solubility over MBZ-C” value was > 10,000 fold. Also, in data set [5], the “stability in intestinal tissue homogenate” value was “unstable” and the “In vitro stability in mouse (% remaining at 60 min) Intestinal homogenate” value is recorded as 1 ± 0%.

Regarding `COC(=O)Nc1nc2cc(C(=O)c3ccccc3)ccc2n1C(C)OC(=O)C(C)(C)C` (stereo not drawn) [Compound 15, 1-(5-benzoyl-2-((methoxycarbonyl)amino)-1H-benzo[d]imidazol-1-yl)ethyl pivalate], the “In vitro stability in mouse (% remaining at 60 min) Plasma” value in data set [3] was 85%. Besides, in data set [5], the “In vitro stability in mouse (% remaining at 60 min) Intestinal homogenate” value was 60%.

As to `COC(=O)Nc1nc2cc(C(=O)c3ccccc3)ccc2n1COC(=O)C(C)(C)C` [Compound 1, (5-Benzoyl-2-((methoxycarbonyl)amino)-1H-benzo[d]imidazol-1-yl)methyl pivalate], the “In vitro stability in mouse (% remaining at 60 min) Plasma” value in data set [3] is recorded as 4 ± 0%. The “In vitro stability in mouse (% remaining at 60 min) Intestinal homogenate” value in data set [5] is 37 ± 2%.

One may read the solubility as how much of the substance goes into solution per volume. `COC(=O)Nc1nc2cc(C(=O)c3ccccc3)ccc2n1COC(=O)OC[C@H]1OC(O)[C@H](O)[C@@H](O)[C@@H]1O` (stereo partly drawn) [Compound 9, Methyl (5-benzoyl-1-((((((2R,3S,4S,5R)-3,4,5,6-tetrahydroxytetrahydro-2H-pyran-2-yl)methoxy)carbonyl)oxy)methyl)-1H-benzo[d]imidazol-2-yl)carbamate]: the “In vitro stability in mouse (% remaining at 60 min) Liver microsomes” value in data set [1] was determined as 27 ± 0%. Moreover, the “In vitro stability in mouse (% remaining at 60 min) Plasma” value in data set [3] is 18 ± 0%. Besides, the “metabolized in mouse plasma” value in data set [3] (60 min incubation) came to 82%. The same molecule displayed a solubility at 24 h in “physchem” (pH 7.4, aqueous buffer) of 220 µg/mL (≈ 414 µM). The “fold improvement in solubility over MBZ-C” value in the data set “physchem” is reported as “greater than 200 fold”. Also, in data set [5], the “In vitro stability in mouse (% remaining at 60 min) Intestinal homogenate” value came to 4 ± 0%.

Turning to `COC(=O)Nc1nc2cc(C(=O)c3ccccc3)ccc2n1COC(=O)CC[C@H](N)C(=O)O` [Compound 14, (S)-2-Amino-5-((5-benzoyl-2-((methoxycarbonyl)amino)-1H-benzo[d]imidazol-1-yl)methoxy)-5-oxopentanoic acid], the “chemical stability, % remaining at 60 min” value in data set [6] (0.01 M PBS, 37° C., 60 min) worked out at 0%. Besides, the “chemical stability” value in data set [6] is on record as “too unstable”. Besides, the concentration in solution in the data set “physchem” (pH 7.4, water) (solubility at 24 h) came to 451 µg/mL (≈ 992 µM).

For `COC(=O)Nc1nc2cc(C(=O)c3ccccc3)ccc2n1COC(=O)CCC(=O)O` [Compound 8, 4-((5-Benzoyl-2-((methoxycarbonyl)amino)-1H-benzo[d]imidazol-1-yl)methoxy)-4-oxobutanoic acid], in data set [1], the “In vitro stability in mouse (% remaining at 60 min) Liver microsomes” value is reported as 24 ± 0%. In addition, the “In vitro stability in mouse (% remaining at 60 min) Plasma” value in data set [3] was 78 ± 1%. In addition, the concentration in solution in “physchem” (pH 7.4, aqueous buffer) (solubility at 24 h) was 386 µg/mL (≈ 908 µM). Moreover, the “fold improvement in solubility over MBZ-C” value in “physchem” was “greater than 200 fold”. Further, the “In vitro stability in mouse (% remaining at 60 min) Intestinal homogenate” value in data set [5] is reported as 30 ± 2%.

Turning to `COC(=O)Nc1nc2cc(C(=O)c3ccccc3)ccc2n1COP(=O)(O)O` [Compound 11, Methyl (5-benzoyl-1-((phosphonooxy)methyl)-1H-benzo[d]imidazol-2-yl)carbamate], the “In vitro stability in mouse (% remaining at 60 min) Liver microsomes” value in data set [1] was determined as 100 ± 2%. The “stability in liver microsomes” value in data set [1] (60 min incubation) is given as “stable”. In addition, the “MBZ plasma concentration” value in data set [2] was determined as 8.53 ± 2.33 nmol/mL. For the same molecule, the “In vitro stability in mouse (% remaining at 60 min) Plasma” value in data set [3] came out at 62 ± 1%. In data set [5], the “In vitro stability in mouse (% remaining at 60 min) Intestinal homogenate” value came to 35 ± 4%.

For `COC(=O)Nc1nc2cc(C(=O)c3ccccc3)ccc2n1C(OC(=O)C(C)(C)C)C(C)C` (stereo not drawn) [Compound 16, 1-(5-benzoyl-2-((methoxycarbonyl)amino)-1H-benzo[d]imidazol-1-yl)-2-methylpropyl pivalate], the “In vitro stability in mouse (% remaining at 60 min) Intestinal homogenate” value in data set [5] is on record as 100%.

Turning to `COC(=O)Nc1nc2cc(C(=O)c3ccccc3)ccc2n1COC(=O)CNC(=O)[C@H](CC(C)C)NC(C)=O` [Compound 7, (5-Benzoyl-2-((methoxycarbonyl)amino)-1H-benzo[d]imidazol-1-yl)methyl acetyl-L-leucylglycinate], the “In vitro stability in mouse (% remaining at 60 min) Liver microsomes” value in data set [1] was determined as 29 ± 1%. Also, in data set [2], the “MBZ plasma concentration” value stood at 8.72 ± 0.63 nmol/mL. Moreover, the “In vitro stability in mouse (% remaining at 60 min) Plasma” value in data set [3] is on record as 0 ± 0%. In data set [6], the “chemical stability” value is reported as “sufficiently stable”. In the data set “physchem” (pH 7.4, aqueous buffer), this molecule displayed a solubility at 24 h of 85.5 µg/mL (≈ 159 µM). In addition, in the data set “physchem”, the “fold improvement in solubility over MBZ-C” value is “greater than 200 fold”. Moreover, the “In vitro stability in mouse (% remaining at 60 min) Intestinal homogenate” value in data set [5] worked out at 18 ± 1%.

As for `COC(=O)Nc1nc2cc(C(=O)c3ccccc3)ccc2n1COP(=O)([O-])OC(C)OC(=O)OC(C)C.[Na+]` (stereo not drawn) [Compound 17, Methyl (5-benzoyl-1-(((hydroxy(((isopropoxycarbonyl)oxy)ethoxy)phosphoryl)oxy)methyl)-111-benzo[d]imidazol-2-yl)carbamate, sodium salt], the “In vitro stability in mouse (% remaining at 60 min) Liver microsomes” value in data set [1] was 82%. The “In vitro stability in mouse (% remaining at 60 min) Plasma” value in data set [3] was 89%. For the same molecule, the “In vitro stability in mouse (% remaining at 60 min) Intestinal homogenate” value in data set [5] is 46%.

Values taken from patent US20210205271A1 (The Johns Hopkins University, priority 2018, published 2021).
